Columns and labels:
SN hantavirus = format: cell-based, Sin Nombre virus
hsp90 = assay: UBP far-western analysis on hsp90; format: binding; settings: purified hsp90
Description: The numbers to the left of the blots indicate the molecular weights in kilodaltons. The regions of UBP contained in each fusion construct are diagrammed below the blots. The right column summarizes the results: a plus symbol indicates binding and a minus symbol indicates no binding.
Western blots were performed using standard techniques. Briefly, 30 μg HeLa cytoplasmic extract or 20 ng of hsc70, hsp70, or hsp90 were denatured in 1×SDS sample buffer. The samples were loaded on a 10% polyacrylamide gel. Separated protein was transferred to nitrocellulose membranes. The membranes were blocked in 5% dry milk protein in TBS (20 mM Tris [pH 7.4], 100 mM NaCl) for 45 min. […] Primary antibody, either anti-hsp70 or hsp90 monoclonal antibodies, or anti-UBP rabbit polyclonal antibody was incubated with the blots at appropriate concentrations (1:1000 dilutions for each) in 5% milk protein in TBS for 2 hours at 4° C. with gentle rocking. The membranes were washed with TBS for 10 minutes. Secondary antibody, either alkaline phosphatase conjugated goat anti-mouse IgG or alkaline phosphatase conjugated goat anti-rabbit IgG diluted at 1:5000 in 5% Milk in TBS, was incubated with the blots for 2 hours at 4° C. with gentle rocking. […]

hsc70 [1] = biological target: T1, hsc70 (Bos taurus, UniProt P19120); assay: Hsc70 ATPase assay; format: biochemical; design: purchased Stressgen; settings: 28 nM hsc70, 0-176 nM UBP, 1 hr at 30° C.
Description: ADP was separated from ATP by thin-layer chromatography and quantified using a phosphorimager. […] The data are represented as the percent ATP hydrolysis and are plotted as a function of time from 0-75 minutes.
ATPase assays were performed essentially as described (Liberek et al., 1991, J. Biol. Chem. 266:14491-14496). […] The reactions were carried out at 30° C. in ATPase buffer (30 mM 4-(-2 hydroxymethl)-1-piperazineethanesulfonic acid (HEPES) buffer pH 7.5, 40 mM KCl, 50 mM NaCl, 5 mM MgCl2, and 2 mM dithiothreitol). […] A 5 μl aliquot of each reaction was directly loaded onto a polyethylamine-cellulose (PEI)-thin layer sheet (Selecto Scientific, Suwanee, Ga.). The products were separated from the substrate by chromatography using 1 M formic acid/1 M LiCl (1:1, vol/vol) as a vehicle. The location of ADP and ATP on the plates was visualized by use of a Phosphorimager (Molecular Dynamics, San Jose, Calif.). […] Five μl aliquots of each reaction were taken at time points of 0, 15, 30, 45, 60, 75 minutes. The samples were analyzed as previously described. Data were quantified and expressed as the percent ATP hydrolysis.

hsc70 [2] = biological target: T1, hsc70; assay: GST-UBP/hsc70 pull down assay with NaCl washes; format: binding; design: purchased Stressgen; settings: washes of increasing NaCl, up to 0.5 M NaCl
Text: (§1) FIG. 13A: Thirty μg of HeLa cell lysate was separated by SDS-PAGE in three identical lanes, blotted to nitrocellulose and probed with either, no probe (none), GST alone, or GST-UBP. The far-western blot was then developed with anti-GST antibody to reveal bands which interact with UBP. The arrow to the right indicates a 70 kD band detected by the GST-UBP fusion. The numbers to the left of each blot represent molecular weights in kilodaltons. […] FIG. 13C, Samples from the GST-UBP pull down assay were analyzed by western blot for the presence hsc70. At the bottom of the gel, the contents of each reaction are indicated by the plus symbols. The NaCl concentration of the washing buffer (100, 200, 300, and 500 mM) is indicated at the top of each lane. The arrow to the right of the blot indicates the position of the hsc70 band.
Either GST or GST-UBP protein was incubated with a 100 μl bed volume of beads in a total volume of 300 μl of binding buffer at 4° C. with gentle rocking for 2 hours. The beads were washed and then blocked with 5% BSA in binding buffers. The beads were washed in binding buffer then incubated with 200 ng of hsc70 in binding buffer for 2 hours at 4° C. […] The samples were heated to 80° C. for 3 minutes then supernatants recovered by centrifugation were analyzed by western blot for hsc70.

hsc70 [3] = biological target: T1, hsc70; assay: UBP far-western analysis on hsc70; format: binding; design: purchased Stressgen; settings: GST fusions as probe
Text: as §1
The term “hsc70” is used when referring to both hsp70 and its nearly identical constitutive counterpart, hsc70. […] The numbers to the left of the blots indicate the molecular weights in kilodaltons. The diagram below the blots indicates regions of UBP contained in each fusion construct. The column to the right summarizes the results, where a plus symbol indicates binding and a minus symbol indicates no binding.
Western blots were performed using standard techniques. […]

hsc70 [4] = biological target: T1, hsc70; assay: Refolding of heat-denatured luciferase by hsc70; settings: 28 nM hsc70, 1 mM ATP, 0 to 100 minutes at 30° C.
HIV-1 = settings: overexpression in virus-producing cells (Callahan et al., 1998); cited from earlier work

T1 sequence (P19120 2-650 limits assumed): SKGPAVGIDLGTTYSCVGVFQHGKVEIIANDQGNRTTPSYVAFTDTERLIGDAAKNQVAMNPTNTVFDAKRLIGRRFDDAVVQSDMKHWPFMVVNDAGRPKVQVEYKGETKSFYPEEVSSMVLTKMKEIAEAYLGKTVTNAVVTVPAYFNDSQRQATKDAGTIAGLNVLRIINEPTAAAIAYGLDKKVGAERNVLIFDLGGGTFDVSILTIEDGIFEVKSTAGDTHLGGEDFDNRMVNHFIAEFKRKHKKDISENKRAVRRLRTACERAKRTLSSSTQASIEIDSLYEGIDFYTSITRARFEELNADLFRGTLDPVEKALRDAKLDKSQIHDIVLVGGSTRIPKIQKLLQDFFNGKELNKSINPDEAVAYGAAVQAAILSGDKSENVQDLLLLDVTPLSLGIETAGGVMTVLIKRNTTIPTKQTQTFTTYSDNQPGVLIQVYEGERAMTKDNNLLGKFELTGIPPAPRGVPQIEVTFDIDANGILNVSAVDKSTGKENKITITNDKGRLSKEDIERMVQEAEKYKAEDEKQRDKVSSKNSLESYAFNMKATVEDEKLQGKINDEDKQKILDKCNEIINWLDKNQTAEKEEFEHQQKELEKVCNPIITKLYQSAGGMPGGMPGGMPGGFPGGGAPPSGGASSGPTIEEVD

| Molecule | inhibition of viral RNA titers (SN hantavirus) [fold] | viral RNA titers after heat shock (SN hantavirus) | association with hsp90 (hsp90) | hsc70-mediated hydrolysis of ATP (hsc70 [1]) | stability of UBP-hs70 interaction to NaCl washes (hsc70 [2]) | interaction with hsc70 (hsc70 [3]) | inhibition of hs70-dependent refolding of luciferase (hsc70 [4]) | HIV-1 virion release (HIV-1) |
| --- | --- | --- | --- | --- | --- | --- | --- | --- |
| O=c1c(O)c(-c2ccc(O)c(O)c2)oc2cc(O)cc(O)c12 [quercetin] | 7.3 | did not have increased levels of viral RNA titers | – | – | – | – | – | – |
| UBP: Viral protein U (Vpu) binding protein, cellular tetratricopeptide repeat (TPR) co-chaperone family member | – | – | could associate | negatively affected | maintained even in the presence of relatively high salt concentrations | does stably associate | about 30% | significant reduction |

From US20050233963A1 (priority 2000, published 2005)
